Key:
Format in all cases: in vivo
[1] = tested on: Alopecurus myosuroides (ALOMY); assay: Post-emergence herbicidal evaluation, black grass; conditions: rated 2 to 4 weeks after treatment
Procedure: (§1) [table] [table] […] These acetone solutions are diluted with water and the resulting formulations applied at dosage levels equivalent of about 0.03 to 0.4 kg per hectare of test compound per pot. After spraying the plants are placed on greenhouse benches and are cared for in the usual manner, commensurate with conventional greenhouse practices. From 2 to 4 weeks after treatment, the seedling plants are examined and rated according to the rating system provided above. A rating 0 indicates growth as untreated control, a rating 9 indicates death.

[2] = tested on: Echinochloa grus galli (ECHCG); assay: Pre-emergence herbicidal evaluation, barnyard grass
Description: (§2) The pre-emergence herbicidal activity of the compounds of the present invention is exemplified by the following test in which the seeds of a variety of monocotyledonous and dicotyledonous plants are seperately mixed with potting soil and planted on top of approximately one inch of soil in separate pots. After planting, the pots are sprayed with the selected aqueous acetone solution containing test compound in sufficient quantity to provide the equivalent of about 0.0125 to 0.4 kg per hectare of test compound per pot. The treated pots are then placed on greenhouse benches, watered and cared for in accordance with conventional greenhouse procedures. From 2 to 4 weeks after treatment, the tests are terminated and each pot is examined and rated according to the rating system set forth below.

[3] = tested on: Zea mays (ZEAMX); assay: Post-emergence herbicidal evaluation, maize; conditions: rated 2 to 4 weeks after treatment
Procedure: as §1

[4] = tested on: Lamium purpureum (LAMPU); assay: Post-emergence herbicidal evaluation, purple deadnettle; conditions: rated 2 to 4 weeks after treatment
Procedure: as §1

[5] = tested on: Lamium purpureum (LAMPU); assay: Pre-emergence herbicidal evaluation, purple deadnettle
How it was run: (§3)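 Rating done 2–4 weeks post-treatment in the greenhouse. Compound, in aqueous acetone, was sprayed onto soil surface right after sowing, at rates equivalent to about 0.0125–0.4 kg per hectare, before crop or weed emergence.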

[6] = tested on: Stellaria media (STEME); assay: Pre-emergence herbicidal evaluation, chickweed
How it was run: as §3

[7] = tested on: Zea mays (ZEAMX); assay: Pre-emergence herbicidal evaluation, maize
Description: as §2

[8] = tested on: Hordeum vulgare (HORVW); assay: Post-emergence herbicidal evaluation, winter barley; conditions: rated 2 to 4 weeks after treatment
Procedure: as §1

[9] = tested on: Setaria viridis (SETVI); assay: Post-emergence herbicidal evaluation, green foxtail; conditions: for SETVI rating: rated 2 to 4 weeks after treatment
Procedure: as §1

[10] = tested on: Solanum nigrum (SOLNI); assay: Post-emergence herbicidal evaluation, black nightshade; conditions: rated 2 to 4 weeks after treatment
Procedure: as §1

[11] = tested on: Abutilon theophrasti (ABUTH); assay: Pre-emergence herbicidal evaluation, velvetleaf
How it was run: as §3

[12] = tested on: Setaria viridis (SETVI); assay: Pre-emergence herbicidal evaluation, green foxtail
How it was run: as §3

[13] = tested on: Triticum aestivum (TRZAW); assay: Post-emergence herbicidal evaluation, winter wheat; conditions: rated 2 to 4 weeks after treatment
Procedure: as §1

[14] = tested on: Alopecurus myosuroides (ALOMY); assay: Pre-emergence herbicidal evaluation, black grass
How it was run: as §3

[15] = tested on: Matricaria inodora (MATIN); assay: Post-emergence herbicidal evaluation, mayweed; conditions: rated 2 to 4 weeks after treatment
Procedure: as §1

[16] = tested on: Triticum aestivum (TRZAW); assay: Pre-emergence herbicidal evaluation, winter wheat
How it was run: as §3

[17] = tested on: Ambrosia artemiisifolia (AMBEL); assay: Post-emergence herbicidal evaluation, ragweed; conditions: rated 2 to 4 weeks after treatment
Procedure: as §1

[18] = tested on: Ambrosia artemiisifolia (AMBEL); assay: Pre-emergence herbicidal evaluation, ragweed
Description: as §2

[19] = tested on: Glycine max (GLXMA); assay: Pre-emergence herbicidal evaluation, soyabeans
Description: as §2

[20] = tested on: Galium aparine (GALAP); assay: Pre-emergence herbicidal evaluation, cleaver
How it was run: as §3

[21] = tested on: Oryza sativum (ORYSA); assay: Pre-emergence herbicidal evaluation, rice
Description: as §2

[22] = tested on: Stellaria media (STEME); assay: Post-emergence herbicidal evaluation, chickweed; conditions: rated 2 to 4 weeks after treatment
Procedure: as §1

[23] = tested on: Ipomoea hederacea (IPOHE); assay: Post-emergence herbicidal evaluation, morning glory; conditions: rated 2 to 4 weeks after treatment
Procedure: as §1

[24] = tested on: Digitaria sanguinalis (DIGSA); assay: Post-emergence herbicidal evaluation, large crabgrass; conditions: rated 2 to 4 weeks after treatment
Procedure: as §1

[25] = tested on: Glycine max (GLXMA); assay: Post-emergence herbicidal evaluation, soyabeans; conditions: rated 2 to 4 weeks after treatment
Procedure: as §1

## Cc1cc(OCC(F)(F)C(F)F)nc(Oc2cc(C(F)(F)F)nn2C)c1 [Example 6]
[1]; dose 0.1 kg/ha
  ALOMY rating: 6 (6 - Herbicidal effect)
[1]; dose 0.25 kg/ha
  ALOMY rating: 2 (2 - Slight effect)
[1]; dose 0.4 kg/ha
  ALOMY rating: 8 (8 - Approaching complete kill)
[2]; dose 0.013 kg/ha
  ECHCG rating: 0 (0 - No effect)
[2]; dose 0.025 kg/ha
  ECHCG rating: 3 (3 - Moderate effect)
[2]; dose 0.1 kg/ha
  ECHCG rating: 8 (8 - Approaching complete kill)
[2]; dose 0.4 kg/ha
  ECHCG rating: 9 (9 - Complete kill)
[3]; dose 0.1 kg/ha
  ZEAMX rating: 2 (2 - Slight effect)
[3]; dose 0.25 kg/ha
  ZEAMX rating: 1 (1 - Trace effect)
[3]; dose 0.4 kg/ha
  ZEAMX rating: 5 (5 - Definite injury)
[4]; dose 0.1 kg/ha
  LAMPU rating: 6 (6 - Herbicidal effect)
[4]; dose 0.25 kg/ha
  LAMPU rating: 4 (4 - Injury)
[4]; dose 0.4 kg/ha
  LAMPU rating: 7 (7 - Good herbicidal effect)
[5]; dose 0.013 kg/ha
  LAMPU rating: 7 (7 - Good herbicidal effect)
[5]; dose 0.025 kg/ha
  LAMPU rating: 7 (7 - Good herbicidal effect)
[5]; dose 0.1 kg/ha
  LAMPU rating: 9 (9 - Complete kill)
[5]; dose 0.4 kg/ha
  LAMPU rating: 9 (9 - Complete kill)
[6]; dose 0.1 kg/ha
  STEME rating: 9 (9 - Complete kill)
[6]; dose 0.4 kg/ha
  STEME rating: 9 (9 - Complete kill)
[7]; dose 0.013 kg/ha
  ZEAMX rating: 0 (0 - No effect)
[7]; dose 0.025 kg/ha
  ZEAMX rating: 1 (1 - Trace effect)
[7]; dose 0.1 kg/ha
  ZEAMX rating: 3 (3 - Moderate effect)
[7]; dose 0.4 kg/ha
  ZEAMX rating: 5 (5 - Definite injury)
[8]; dose 0.1 kg/ha
  HORVW rating: 2 (2 - Slight effect)
[8]; dose 0.25 kg/ha
  HORVW rating: 1 (1 - Trace effect)
[8]; dose 0.4 kg/ha
  HORVW rating: 3 (3 - Moderate effect)
[9]; dose 0.1 kg/ha
  SETVI rating: 3 (3 - Moderate effect)
[9]; dose 0.25 kg/ha
  SETVI rating: 2 (2 - Slight effect)
[9]; dose 0.4 kg/ha
  SETVI rating: 6 (6 - Herbicidal effect)
[9]; in barley at crop selective doses
  grass control such as Setaria virides: effective
[10]; dose 0.1 kg/ha
  SOLNI rating: 2 (2 - Slight effect)
[10]; dose 0.25 kg/ha
  SOLNI rating: 1 (1 - Trace effect)
[10]; dose 0.4 kg/ha
  SOLNI rating: 4 (4 - Injury)
[11]; dose 0.013 kg/ha
  ABUTH rating: 1 (1 - Trace effect)
[11]; dose 0.025 kg/ha
  ABUTH rating: 2 (2 - Slight effect)
[11]; dose 0.1 kg/ha
  ABUTH rating: 3 (3 - Moderate effect)
[11]; dose 0.4 kg/ha
  ABUTH rating: 9 (9 - Complete kill)
[12]; dose 0.013 kg/ha
  SETVI rating: 4 (4 - Injury)
[12]; dose 0.025 kg/ha
  SETVI rating: 6 (6 - Herbicidal effect)
[12]; dose 0.1 kg/ha
  SETVI rating: 8 (8 - Approaching complete kill)
[12]; dose 0.4 kg/ha
  SETVI rating: 9 (9 - Complete kill)
[13]; dose 0.1 kg/ha
  TRZAW rating: 2 (2 - Slight effect)
[13]; dose 0.25 kg/ha
  TRZAW rating: 1 (1 - Trace effect)
[13]; dose 0.4 kg/ha
  TRZAW rating: 3 (3 - Moderate effect)
[14]; dose 0.013 kg/ha
  ALOMY rating: 1 (1 - Trace effect)
[14]; dose 0.025 kg/ha
  ALOMY rating: 3 (3 - Moderate effect)
[14]; dose 0.1 kg/ha
  ALOMY rating: 9 (9 - Complete kill)
[14]; dose 0.4 kg/ha
  ALOMY rating: 9 (9 - Complete kill)
[15]; dose 0.1 kg/ha
  MATIN rating: 6 (6 - Herbicidal effect)
[15]; dose 0.25 kg/ha
  MATIN rating: 4 (4 - Injury)
[15]; dose 0.4 kg/ha
  MATIN rating: 6 (6 - Herbicidal effect)
[16]; dose 0.013 kg/ha
  TRZAW rating: 0 (0 - No effect)
[16]; dose 0.025 kg/ha
  TRZAW rating: 0 (0 - No effect)
[16]; dose 0.1 kg/ha
  TRZAW rating: 1 (1 - Trace effect)
[16]; dose 0.4 kg/ha
  TRZAW rating: 2 (2 - Slight effect)
[17]; dose 0.1 kg/ha
  AMBEL rating: 4 (4 - Injury)
[17]; dose 0.25 kg/ha
  AMBEL rating: 3 (3 - Moderate effect)
[17]; dose 0.4 kg/ha
  AMBEL rating: 6 (6 - Herbicidal effect)
[18]; dose 0.013 kg/ha
  AMBEL rating: 1 (1 - Trace effect)
[18]; dose 0.025 kg/ha
  AMBEL rating: 1 (1 - Trace effect)
[18]; dose 0.1 kg/ha
  AMBEL rating: 9 (9 - Complete kill)
[18]; dose 0.4 kg/ha
  AMBEL rating: 9 (9 - Complete kill)
[19]; dose 0.013 kg/ha
  GLXMA rating: 0 (0 - No effect)
[19]; dose 0.025 kg/ha
  GLXMA rating: 2 (2 - Slight effect)
[19]; dose 0.1 kg/ha
  GLXMA rating: 3 (3 - Moderate effect)
[19]; dose 0.4 kg/ha
  GLXMA rating: 5 (5 - Definite injury)
[20]; dose 0.013 kg/ha
  GALAP rating: 1 (1 - Trace effect)
[20]; dose 0.025 kg/ha
  GALAP rating: 1 (1 - Trace effect)
[20]; dose 0.1 kg/ha
  GALAP rating: 5 (5 - Definite injury)
[20]; dose 0.4 kg/ha
  GALAP rating: 8 (8 - Approaching complete kill)
[21]; dose 0.013 kg/ha
  ORYSA rating: 0 (0 - No effect)
[21]; dose 0.025 kg/ha
  ORYSA rating: 0 (0 - No effect)
[21]; dose 0.1 kg/ha
  ORYSA rating: 1 (1 - Trace effect)
[21]; dose 0.4 kg/ha
  ORYSA rating: 2 (2 - Slight effect)
[22]; dose 0.1 kg/ha
  STEME rating: 2 (2 - Slight effect)
[22]; dose 0.25 kg/ha
  STEME rating: 2 (2 - Slight effect)
[22]; dose 0.4 kg/ha
  STEME rating: 3 (3 - Moderate effect)
[23]; dose 0.1 kg/ha
  IPOHE rating: 8 (8 - Approaching complete kill)
[23]; dose 0.25 kg/ha
  IPOHE rating: 7 (7 - Good herbicidal effect)
[23]; dose 0.4 kg/ha
  IPOHE rating: 9 (9 - Complete kill)
[24]; dose 0.1 kg/ha
  DIGSA rating: 6 (6 - Herbicidal effect)
[24]; dose 0.25 kg/ha
  DIGSA rating: 4 (4 - Injury)
[24]; dose 0.4 kg/ha
  DIGSA rating: 7 (7 - Good herbicidal effect)
[25]; dose 0.1 kg/ha
  GLXMA rating: 7 (7 - Good herbicidal effect)
[25]; dose 0.25 kg/ha
  GLXMA rating: 7 (7 - Good herbicidal effect)
[25]; dose 0.4 kg/ha
  GLXMA rating: 7 (7 - Good herbicidal effect)

— patent US6852673B2, “Herbicidal pyridine compounds” (BASF Aktiengesellschaft, priority 1998, dated 2005)
